Laboratory results published in patent US6737383B1, “Herbicidal oxadiazolidines” (priority 1999, dated 2004).

Tests used:
soybean = assay: Test B pre/postemergence soybean; assay type: in vivo, Glycine max
Summary of the method: (§1)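 Herbicidal effect was estimated by eye on a ten-point control scale after plants spent twelve to sixteen days in a greenhouse following soil or foliar treatment. Foliar sprays targeted plants at one to four leaves; all doses were formulated in a non-phytotoxic solvent with surfactant.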

morningglory = assay: Test B pre/postemergence morningglory; assay type: in vivo, Ipomoea hederacea
Summary of the method: as §1

bedstraw = assay: Test B pre/postemergence bedstraw; assay type: in vivo, Galium aparine
Summary of the method: as §1

rape = assay: Test B pre/postemergence rape; assay type: in vivo, Brassica napus
Summary of the method: as §1

cocklebur = assay: Test B pre/postemergence cocklebur; assay type: in vivo, Xanthium strumarium
Summary of the method: as §1

corn = assay: Test B pre/postemergence corn; assay type: in vivo, Zea mays
Summary of the method: as §1

velvetleaf = assay: Test B pre/postemergence velvetleaf; assay type: in vivo, Abutilon theophrasti
Summary of the method: as §1

crabgrass = assay: Test B pre/postemergence crabgrass; assay type: in vivo, Digitaria sanguinalis
Summary of the method: as §1

surinam grass = assay: Test B pre/postemergence surinam grass; assay type: in vivo, Brachiaria decumbens
Summary of the method: as §1

rice = assay: Test B flood test rice; assay type: in vivo, Oryza sativa
Summary of the method: (§2)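 Read-out is a visual response score from 0 (no effect) to 10 (complete control), assigned by comparison with untreated controls. Treatment was applied at the 2-leaf stage, and plants stayed in the greenhouse for twelve to sixteen days before scoring.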

blackgrass = assay: Test B pre/postemergence blackgrass; assay type: in vivo, Alopecurus myosuroides
Summary of the method: as §1

wheat = assay: Test B pre/postemergence wheat; assay type: in vivo, Triticum aestivum
Summary of the method: as §1

pigweed = assay: Test B pre/postemergence pigweed; assay type: in vivo, Amaranthus retroflexus
Summary of the method: as §1

purple nutsedge = assay: Test B pre/postemergence purple nutsedge; assay type: in vivo, Cyperus rotundus
Summary of the method: as §1

wild oat = assay: Test B pre/postemergence wild oat; assay type: in vivo, Avena fatua
Summary of the method: as §1

bamyardgrass = assay: Test B flood test barnyardgrass; assay type: in vivo, Echinochloa crus-galli
Summary of the method: as §2

smallflower flatsedge = assay: Test B flood test smallflower flatsedge; assay type: in vivo, Cyperus difformis
Summary of the method: as §2

giant foxtail = assay: Test B pre/postemergence giant foxtail; assay type: in vivo, Setaria faberii
Summary of the method: as §1

sugar beet = assay: Test B pre/postemergence sugar beet; assay type: in vivo, Beta vulgaris
Summary of the method: as §1

duck salad = assay: Test B flood test duck salad; assay type: in vivo, Heteranthera limosa
Summary of the method: as §2

[1] = Preemergence, Rate 62 g/ha, scale of 0 to 10 where 0 is no effect and 10 is complete control
[2] = Preemergence, Rate 250 g/ha, scale of 0 to 10 where 0 is no effect and 10 is complete control
[3] = Preemergence, Rate 500 g/ha, scale of 0 to 10 where 0 is no effect and 10 is complete control
[4] = Rate 125 g/ha, Preemergence, scale of 0 to 10 where 0 is no effect and 10 is complete control
[5] = Rate 500 g/ha, Postemergence, scale 0 to 10, 0 no effect, 10 complete control
[6] = Rate 62 g/ha, Postemergence, scale of 0 to 10 where 0 is no effect and 10 is complete control
[7] = Rate 125 g/ha, Postemergence, scale 0 to 10
[8] = Rate 62 g/ha, headed Pre-emergence (flood test species), scale 0 to 10 (0 no effect, 10 complete control)
[9] = Rate 125 g/ha, Pre-emergence, flood test species, scale 0 to 10 where 0 is no effect and 10 is complete control
[10] = Rate 250 g/ha, Pre-emergence, flood-test species, scale 0 to 10, 0 is no effect, 10 is complete control
[11] = Rate 500 g/ha, Pre-emergence, flood test species, scale 0 to 10 (0 no effect, 10 complete control)

CCCCCC#CCn1c(=O)on(C(=O)N(c2ccc(F)cc2)C(C)C)c1=O [Compound 254]
Soybean plant response rating (soybean; [1]): 0 | Soybean plant response rating (soybean; [2]): 0 | Plant response rating, Soybean (soybean; [3]): 0 | Soybean plant response rating (soybean; [4]): 0 | Soybean plant response rating (soybean; [5]): 2 | Morningglory plant response rating (morningglory; [1]): 0 | Morningglory plant response rating (morningglory; [2]): 0 | Plant response rating, Morningglory (morningglory; [3]): 0 | Morningglory plant response rating (morningglory; [4]): 0 | Plant response rating (0 to 10; 0 is no effect, 10 is complete control), Morningglory (morningglory; Rate 250 g/ha, Postemergence): 9 | Morningglory plant response rating (morningglory; [5]): 9 | Bedstraw plant response rating (bedstraw; [1]): 0 | Bedstraw plant response rating (bedstraw; [2]): 0 | Plant response rating, Bedstraw (bedstraw; [3]): 0 | Bedstraw plant response rating (bedstraw; [6]): 0 | Bedstraw plant response rating (bedstraw; [7]): 4 | Bedstraw plant response rating (bedstraw; [4]): 0 | Plant response rating (0 to 10; 0 is no effect, 10 is complete control), Bedstraw (bedstraw; Rate 250 g/ha, Postemergence): 4 | Bedstraw plant response rating (bedstraw; [5]): 4 | Rape plant response rating (rape; [1]): 0 | Rape plant response rating (rape; [2]): 2 | Plant response rating, Rape (rape; [3]): 6 | Rape plant response rating (rape; [4]): 0 | Plant response rating (0 to 10; 0 is no effect, 10 is complete control), Rape (rape; Rate 250 g/ha, Postemergence): 2 | Rape plant response rating (rape; [5]): 2 | Cocklebur plant response rating (cocklebur; [1]): 0 | Cocklebur plant response rating (cocklebur; [2]): 0 | Plant response rating, Cocklebur (cocklebur; [3]): 0 | Cocklebur plant response rating (cocklebur; [6]): 0 | Cocklebur plant response rating (cocklebur; [7]): 0 | Cocklebur plant response rating (cocklebur; [4]): 0 | Plant response rating (0 to 10; 0 is no effect, 10 is complete control), Cocklebur (cocklebur; Rate 250 g/ha, Postemergence): 0 | Cocklebur plant response rating (cocklebur; [5]): 0 | Corn plant response rating (corn; [1]): 0 | Corn plant response rating (corn; [2]): 0 | Plant response rating, Corn (corn; [3]): 0 | Corn plant response rating (corn; [6]): 0 | Corn plant response rating (corn; [7]): 0 | Corn plant response rating (corn; [4]): 0 | Plant response rating (0 to 10; 0 is no effect, 10 is complete control), Corn (corn; Rate 250 g/ha, Postemergence): 0 | Corn plant response rating (corn; [5]): 0 | Velvetleaf plant response rating (velvetleaf; [1]): 0 | Velvetleaf plant response rating (velvetleaf; [2]): 0 | Plant response rating, Velvetleaf (velvetleaf; [3]): 0 | Velvetleaf plant response rating (velvetleaf; [4]): 0 | Velvetleaf plant response rating (velvetleaf; [5]): 2 | Crabgrass plant response rating (crabgrass; [1]): 0 | Crabgrass plant response rating (crabgrass; [2]): 0 | Plant response rating, Crabgrass (crabgrass; [3]): 3 | Crabgrass plant response rating (crabgrass; [4]): 0 | Plant response rating (0 to 10; 0 is no effect, 10 is complete control), Crabgrass (crabgrass; Rate 250 g/ha, Postemergence): 0 | Crabgrass plant response rating (crabgrass; [5]): 0 | B. signalgrass plant response rating (surinam grass; [1]): 0 | B. signalgrass plant response rating (surinam grass; [2]): 0 | Plant response rating, B. signalgrass (surinam grass; [3]): 0 | B. signalgrass plant response rating (surinam grass; [6]): 0 | B. signalgrass plant response rating (surinam grass; Rate 125 g/ha, Postemergence, scale 0 (no effect) to 10 (complete control)): 0 | B. signalgrass plant response rating (surinam grass; [4]): 0 | Plant response rating (0 to 10; 0 is no effect, 10 is complete control), B. signalgrass (surinam grass; Rate 250 g/ha, Postemergence): 0 | B. signalgrass plant response rating (surinam grass; [5]): 0 | Rice plant response rating (rice; [8]): 0 | Rice plant response rating (rice; [9]): 0 | Rice plant response rating (rice; [10]): 0 | Rice plant response rating (rice; [11]): 0 | Blackgrass plant response rating (blackgrass; [1]): 0 | Blackgrass plant response rating (blackgrass; [2]): 0 | Plant response rating, Blackgrass (blackgrass; [3]): 4 | Blackgrass plant response rating (blackgrass; [6]): 0 | Blackgrass plant response rating (blackgrass; [7]): 0 | Blackgrass plant response rating (blackgrass; [4]): 0 | Plant response rating (0 to 10; 0 is no effect, 10 is complete control), Blackgrass (blackgrass; Rate 250 g/ha, Postemergence): 0 | Blackgrass plant response rating (blackgrass; [5]): 0 | Wheat plant response rating (wheat; [1]): 0 | Wheat plant response rating (wheat; [2]): 0 | Plant response rating, Wheat (wheat; [3]): 0 | Wheat plant response rating (wheat; [4]): 0 | Wheat plant response rating (wheat; [5]): 0 | Redroot pigweed plant response rating (pigweed; [1]): 0 | Redroot pigweed plant response rating (pigweed; [2]): 0 | Plant response rating, Redroot pigweed (pigweed; [3]): 0 | Redroot pigweed plant response rating (pigweed; [4]): 0 | Plant response rating (0 to 10; 0 is no effect, 10 is complete control), Redroot pigweed (pigweed; Rate 250 g/ha, Postemergence): 3 | Redroot pigweed plant response rating (pigweed; [5]): 6 | Nutsedge plant response rating (purple nutsedge; [1]): 0 | Nutsedge plant response rating (purple nutsedge; [2]): 0 | Plant response rating, Nutsedge (purple nutsedge; [3]): 0 | Nutsedge plant response rating (purple nutsedge; [4]): 0 | Plant response rating (0 to 10; 0 is no effect, 10 is complete control), Nutsedge (purple nutsedge; Rate 250 g/ha, Postemergence): 0 | Nutsedge plant response rating (purple nutsedge; [5]): 0 | Wild oats plant response rating (wild oat; [1]): 0 | Wild oats plant response rating (wild oat; [2]): 0 | Plant response rating, Wild oats (wild oat; [3]): 2 | Wild oats plant response rating (wild oat; [4]): 0 | Wild oats plant response rating (wild oat; [5]): 0 | Barnyardgrass plant response rating (bamyardgrass; [8]): 0 | Barnyardgrass plant response rating (bamyardgrass; [9]): 0 | Barnyardgrass plant response rating (bamyardgrass; [10]): 0 | Barnyardgrass plant response rating (bamyardgrass; [11]): 0 | S. Flatsedge plant response rating (smallflower flatsedge; [8]): 0 | S. Flatsedge plant response rating (smallflower flatsedge; [9]): 0 | S. Flatsedge plant response rating (smallflower flatsedge; [10]): 0 | S. Flatsedge plant response rating (smallflower flatsedge; [11]): 0 | Giant foxtail plant response rating (giant foxtail; [1]): 0 | Giant foxtail plant response rating (giant foxtail; [2]): 6 | Plant response rating, Giant foxtail (giant foxtail; [3]): 10 | Giant foxtail plant response rating (giant foxtail; [4]): 3 | Plant response rating (0 to 10; 0 is no effect, 10 is complete control), Giant foxtail (giant foxtail; Rate 250 g/ha, Postemergence): 0 | Giant foxtail plant response rating (giant foxtail; [5]): 0 | Sugarbeets plant response rating (sugar beet; [1]): 0 | Sugarbeets plant response rating (sugar beet; [2]): 2 | Plant response rating, Sugarbeets (sugar beet; [3]): 6 | Sugarbeets plant response rating (sugar beet; [4]): 2 | Sugarbeets plant response rating (sugar beet; [5]): 7 | Ducksalad plant response rating (duck salad; [8]): 0 | Ducksalad plant response rating (duck salad; [9]): 0 | Ducksalad plant response rating (duck salad; [10]): 0 | Ducksalad plant response rating (duck salad; [11]): 0
